The CheMixHub viscosity set
± gives the uncertainty stated by the source.

Experiment: xn = mol fraction of the nth substance listed

CCCCCCO + C1CCCCC1
Conditions | viscosity [mPa·s]
293.15 K, 100 kPa, x2 = 0.0817 | 4.68 ± 0.38
293.15 K, 100 kPa, x2 = 0.1603 | 4.1 ± 0.33
293.15 K, 100 kPa, x2 = 0.2421 | 3.55 ± 0.29
293.15 K, 100 kPa, x2 = 0.3502 | 2.91 ± 0.23
293.15 K, 100 kPa, x2 = 0.4409 | 2.45 ± 0.2
293.15 K, 100 kPa, x2 = 0.5593 | 1.94 ± 0.16
293.15 K, 100 kPa, x2 = 0.6517 | 1.64 ± 0.13
293.15 K, 100 kPa, x2 = 0.7396 | 1.4 ± 0.11
293.15 K, 100 kPa, x2 = 0.8512 | 1.18 ± 0.1
293.15 K, 100 kPa, x2 = 0.9402 | 1.05 ± 0.08
303 K, 101.33 kPa, x1 = 0.1 | 0.8842 ± 0.02
303 K, 101.33 kPa, x1 = 0.2008 | 1.003 ± 0.022
303 K, 101.33 kPa, x1 = 0.2997 | 1.155 ± 0.025
303 K, 101.33 kPa, x1 = 0.4002 | 1.329 ± 0.029
303 K, 101.33 kPa, x1 = 0.4994 | 1.58 ± 0.035
303 K, 101.33 kPa, x1 = 0.6004 | 1.919 ± 0.044
303 K, 101.33 kPa, x1 = 0.6986 | 2.266 ± 0.055
303 K, 101.33 kPa, x1 = 0.8004 | 2.705 ± 0.069
303 K, 101.33 kPa, x1 = 0.8991 | 3.173 ± 0.086
303.15 K, 100 kPa, x2 = 0.0817 | 3.47 ± 0.28
303.15 K, 100 kPa, x2 = 0.1603 | 3.06 ± 0.25
303.15 K, 100 kPa, x2 = 0.2421 | 2.68 ± 0.22
303.15 K, 100 kPa, x2 = 0.3502 | 2.23 ± 0.18
303.15 K, 100 kPa, x2 = 0.4409 | 1.91 ± 0.15
303.15 K, 100 kPa, x2 = 0.5593 | 1.56 ± 0.13
303.15 K, 100 kPa, x2 = 0.6517 | 1.34 ± 0.11
303.15 K, 100 kPa, x2 = 0.7396 | 1.14 ± 0.09
303.15 K, 100 kPa, x2 = 0.8512 | 0.96 ± 0.08
303.15 K, 100 kPa, x2 = 0.9402 | 0.86 ± 0.07
303.15 K, 101 kPa, x1 = 0.6491 | 1.907 ± 0.2
303.15 K, 101.33 kPa, x1 = 0.1085 | 0.9365 ± 0.012
303.15 K, 101.33 kPa, x1 = 0.2023 | 1.058 ± 0.013
303.15 K, 101.33 kPa, x1 = 0.3065 | 1.225 ± 0.015
303.15 K, 101.33 kPa, x1 = 0.3939 | 1.392 ± 0.017
303.15 K, 101.33 kPa, x1 = 0.5019 | 1.641 ± 0.019
303.15 K, 101.33 kPa, x1 = 0.6052 | 1.93 ± 0.023
303.15 K, 101.33 kPa, x1 = 0.701 | 2.255 ± 0.026
303.15 K, 101.33 kPa, x1 = 0.7991 | 2.649 ± 0.03
303.15 K, 101.33 kPa, x1 = 0.8894 | 3.088 ± 0.035
308.15 K, 101 kPa, x1 = 0.6491 | 1.701 ± 0.17
313 K, 101.33 kPa, x1 = 0.1 | 0.7554 ± 0.018
313 K, 101.33 kPa, x1 = 0.2008 | 0.8505 ± 0.019
313 K, 101.33 kPa, x1 = 0.2997 | 0.9723 ± 0.021
313 K, 101.33 kPa, x1 = 0.4002 | 1.115 ± 0.024
313 K, 101.33 kPa, x1 = 0.4994 | 1.302 ± 0.027
313 K, 101.33 kPa, x1 = 0.6004 | 1.526 ± 0.032
313 K, 101.33 kPa, x1 = 0.6986 | 1.781 ± 0.039
313 K, 101.33 kPa, x1 = 0.8004 | 2.083 ± 0.047
313 K, 101.33 kPa, x1 = 0.8991 | 2.417 ± 0.057
313.15 K, 100 kPa, x2 = 0.0817 | 2.61 ± 0.21
313.15 K, 100 kPa, x2 = 0.1603 | 2.33 ± 0.19
313.15 K, 100 kPa, x2 = 0.2421 | 2.04 ± 0.16
313.15 K, 100 kPa, x2 = 0.3502 | 1.72 ± 0.14
313.15 K, 100 kPa, x2 = 0.4409 | 1.49 ± 0.12
313.15 K, 100 kPa, x2 = 0.5593 | 1.24 ± 0.1
313.15 K, 100 kPa, x2 = 0.6517 | 1.08 ± 0.09
313.15 K, 100 kPa, x2 = 0.7396 | 0.93 ± 0.08
313.15 K, 100 kPa, x2 = 0.8512 | 0.79 ± 0.06
313.15 K, 100 kPa, x2 = 0.9402 | 0.72 ± 0.06
313.15 K, 101 kPa, x1 = 0.6491 | 1.63 ± 0.17
323 K, 101.33 kPa, x1 = 0.1 | 0.65 ± 0.016
323 K, 101.33 kPa, x1 = 0.2008 | 0.7271 ± 0.017
323 K, 101.33 kPa, x1 = 0.2997 | 0.8205 ± 0.018
323 K, 101.33 kPa, x1 = 0.4002 | 0.9237 ± 0.02
323 K, 101.33 kPa, x1 = 0.4994 | 1.061 ± 0.022
323 K, 101.33 kPa, x1 = 0.6004 | 1.239 ± 0.025
323 K, 101.33 kPa, x1 = 0.6986 | 1.433 ± 0.029
323 K, 101.33 kPa, x1 = 0.8004 | 1.658 ± 0.034
323 K, 101.33 kPa, x1 = 0.8991 | 1.896 ± 0.04
323.15 K, 100 kPa, x2 = 0.0817 | 2.02 ± 0.16
323.15 K, 100 kPa, x2 = 0.1603 | 1.8 ± 0.14
323.15 K, 100 kPa, x2 = 0.2421 | 1.6 ± 0.13
323.15 K, 100 kPa, x2 = 0.3502 | 1.36 ± 0.11
323.15 K, 100 kPa, x2 = 0.4409 | 1.19 ± 0.1
323.15 K, 100 kPa, x2 = 0.5593 | 1 ± 0.08
323.15 K, 100 kPa, x2 = 0.6517 | 0.87 ± 0.07
323.15 K, 100 kPa, x2 = 0.7396 | 0.77 ± 0.06
323.15 K, 100 kPa, x2 = 0.8512 | 0.67 ± 0.05
323.15 K, 100 kPa, x2 = 0.9402 | 0.61 ± 0.05

O=C1CCCCC1 + C1CCCCC1
Conditions | viscosity [mPa·s]
298.15 K, 101.3 kPa, x2 = 0.4895 | 1.275 ± 0.02
303.15 K, 101 kPa, x2 = 0.1065 | 1.596 ± 0.019
303.15 K, 101 kPa, x2 = 0.2078 | 1.451 ± 0.017
303.15 K, 101 kPa, x2 = 0.3013 | 1.32 ± 0.015
303.15 K, 101 kPa, x2 = 0.3971 | 1.214 ± 0.014
303.15 K, 101 kPa, x2 = 0.5022 | 1.102 ± 0.013
303.15 K, 101 kPa, x2 = 0.604 | 1.027 ± 0.012
303.15 K, 101 kPa, x2 = 0.7024 | 0.9614 ± 0.011
303.15 K, 101 kPa, x2 = 0.8086 | 0.8788 ± 0.01
303.15 K, 101 kPa, x2 = 0.8742 | 0.8504 ± 0.01
303.15 K, 101 kPa, x2 = 0.9034 | 0.8387 ± 0.0099

CC(C)CC(C)(C)C + C1COCCO1
viscosity [mPa·s], 101 kPa
Conditions | x2 = 0.1085 | x2 = 0.2061 | x2 = 0.2943 | x2 = 0.3746 | x2 = 0.515 | x2 = 0.6337 | x2 = 0.6865 | x2 = 0.8237 | x2 = 0.9008
293.15 K | 0.5237 ± 0.0039 | 0.5426 ± 0.0041 | 0.5664 ± 0.0043 | 0.5961 ± 0.0045 | 0.6613 ± 0.005 | 0.7446 ± 0.0057 | 0.7922 ± 0.0061 | 0.9589 ± 0.0074 | 1.083 ± 0.0084
298.15 K | 0.4947 ± 0.0037 | 0.5119 ± 0.0039 | 0.5334 ± 0.0041 | 0.561 ± 0.0043 | 0.6252 ± 0.0048 | 0.6968 ± 0.0054 | 0.7388 ± 0.0057 | 0.885 ± 0.0069 | 0.9979 ± 0.0078
303.15 K | 0.4683 ± 0.0036 | 0.4835 ± 0.0037 | 0.5036 ± 0.0039 | 0.5289 ± 0.0041 | 0.5825 ± 0.0045 | 0.6529 ± 0.0051 | 0.6909 ± 0.0054 | 0.8248 ± 0.0065 | 0.9282 ± 0.0073
308.15 K | 0.4438 ± 0.0034 | 0.4578 ± 0.0035 | 0.4761 ± 0.0037 | 0.4992 ± 0.0039 | 0.5485 ± 0.0043 | 0.6141 ± 0.0048 | 0.6485 ± 0.0051 | 0.7634 ± 0.006 | 0.857 ± 0.0068
313.15 K | 0.4211 ± 0.0033 | 0.4352 ± 0.0034 | 0.4507 ± 0.0035 | 0.4727 ± 0.0037 | 0.5181 ± 0.0041 | 0.5788 ± 0.0046 | 0.6082 ± 0.0048 | 0.7242 ± 0.0057 | 0.7993 ± 0.0064

O=C1CCCCC1 + C1COCCO1
viscosity [mPa·s], 101 kPa
Conditions | x1 = 0.099 | x1 = 0.2022 | x1 = 0.31 | x1 = 0.4227 | x1 = 0.5406 | x1 = 0.6641 | x1 = 0.728 | x1 = 0.8607 | x1 = 0.9295
293.15 K | 1.323 ± 0.01 | 1.352 ± 0.011 | 1.396 ± 0.011 | 1.463 ± 0.011 | 1.56 ± 0.012 | 1.694 ± 0.013 | 1.782 ± 0.014 | 2.003 ± 0.015 | 2.148 ± 0.017
298.15 K | 1.214 ± 0.0096 | 1.239 ± 0.0098 | 1.281 ± 0.01 | 1.341 ± 0.01 | 1.429 ± 0.011 | 1.544 ± 0.012 | 1.626 ± 0.013 | 1.816 ± 0.014 | 1.941 ± 0.015
303.15 K | 1.12 ± 0.0089 | 1.142 ± 0.0091 | 1.184 ± 0.0094 | 1.235 ± 0.0097 | 1.324 ± 0.01 | 1.417 ± 0.011 | 1.489 ± 0.012 | 1.657 ± 0.013 | 1.769 ± 0.014
308.15 K | 1.036 ± 0.0083 | 1.06 ± 0.0085 | 1.094 ± 0.0087 | 1.145 ± 0.0091 | 1.224 ± 0.0097 | 1.315 ± 0.01 | 1.373 ± 0.011 | 1.513 ± 0.012 | 1.618 ± 0.013
313.15 K | 0.9598 ± 0.0077 | 0.9803 ± 0.0079 | 1.017 ± 0.0081 | 1.063 ± 0.0085 | 1.143 ± 0.0091 | 1.212 ± 0.0096 | 1.263 ± 0.0099 | 1.39 ± 0.011 | 1.497 ± 0.012

CCOCC + C=C(C)C(=O)OC
298.15 K, 101.3 kPa
Conditions | viscosity [mPa·s]
x2 = 0.0454 | 0.249 ± 0.003
x2 = 0.1483 | 0.281 ± 0.003
x2 = 0.249 | 0.314 ± 0.003
x2 = 0.3495 | 0.349 ± 0.003
x2 = 0.4486 | 0.385 ± 0.003
x2 = 0.4908 | 0.4 ± 0.004
x2 = 0.5479 | 0.421 ± 0.004
x2 = 0.6504 | 0.459 ± 0.004
x2 = 0.7501 | 0.496 ± 0.004
x2 = 0.8488 | 0.532 ± 0.004
x2 = 0.947 | 0.567 ± 0.004

C=C(C)[C@@H]1CC=C(C)CC1 + C=CC(C)(O)CCC=C(C)C
viscosity [mPa·s], 101.33 kPa
Conditions | x1 = 0.0422 | x1 = 0.1332 | x1 = 0.2273 | x1 = 0.3523 | x1 = 0.4816 | x1 = 0.562 | x1 = 0.6389 | x1 = 0.7679 | x1 = 0.8478 | x1 = 0.9236
298.15 K | 4.062 ± 0.032 | 3.237 ± 0.026 | 2.695 ± 0.021 | 2.072 ± 0.016 | 1.626 ± 0.013 | 1.429 ± 0.011 | 1.282 ± 0.01 | 1.101 ± 0.009 | 1.013 ± 0.008 | 0.933 ± 0.008
313.15 K | 2.37 ± 0.019 | 2.025 ± 0.016 | 1.731 ± 0.014 | 1.427 ± 0.012 | 1.196 ± 0.01 | 1.086 ± 0.009 | 0.998 ± 0.008 | 0.877 ± 0.007 | 0.814 ± 0.007 | 0.755 ± 0.006
